Data taken from patent US8841233B2, “Herbicidal compositions comprising 4-amino-3-chloro-5-fluoro-6-(4-chloro-2-fluoro-3-methoxyphenyl) pyridine-2-carboxylic acid or a derivative thereof and 4-hydroxyphenyl-pyruvate dioxygenase (HPPD) inhibitors” (Dow Agrosciences LLC, priority 2012, dated 2014).

How the values were obtained:
ECHOR = assay: In-water applied weed control, transplanted paddy rice, greenhouse (Example II); assay type: in vivo, Echinochloa oryzoides (Ard.) Fritsch
Description: (§1) Evaluation of in-Water Applied Herbicidal Mixtures for Weed Control in Transplanted Paddy Rice
(§2) Weed seeds or nutlets of the desired test plant species were planted in puddled soil (mud) prepared by mixing a shredded, non-sterilized mineral soil (50.5 percent silt, 25.5 percent clay, and 24 percent sand, with a pH of about 7.6 and an organic matter content of about 2.9 percent) and water at a 1:1 volumetric ratio. The prepared mud was dispensed in 365 mL aliquots into 16-ounce (oz.) non-perforated plastic pots with a surface area of 86.59 square centimeters (cm^2) leaving a headspace of 3 centimeters (cm) in each pot. Mud was allowed to dry overnight prior to planting or transplanting. Rice seeds were planted in Sun Gro MetroMix® 306 planting mixture, which typically has a pH of 6.0 to 6.8 and an organic matter content of about 30 percent, in plastic plug trays. Seedlings at the second or third leaf stage of growth were transplanted into 840 mL of mud contained in 32-oz. non-perforated plastic pots with a surface area of 86.59 cm^2 4 days prior to herbicide application. The paddy was created by filling the headspace of the pots with 2.5 to 3 cm of water. When required to ensure good germination and healthy plants, a fungicide treatment and/or other chemical or physical treatment was applied. The plants were grown for 4-22 days in a greenhouse with an approximate 14 h photoperiod which was maintained at about 29′C during the day and 26° C. during the night. Nutrients were added as Osmocote® (19:6:12, N:P:K+ minor nutrients) at 2 g per 16-oz. pot and 4 g per 32-oz. pot. Water was added on a regular basis to maintain the paddy flood, and supplemental lighting was provided with overhead metal halide 1000-Watt lamps as necessary. The plants were employed for testing when they reached the first through fourth true leaf stage.
(§3) Treatments consisted of the acid or esters of 4-amino-3-chloro-5-fluoro-6-(4-chloro-2-fluoro-3-methoxy-phenyl)pyridine-2-carboxylic acid (compound A) each formulated as an SC (suspension concentrate) and various herbicidal components alone and in combination. Forms of compound A were applied on an acid equivalent basis.
(§4) Other herbicidal components were applied on an active ingredient basis and included 4-hydroxyphenyl pyruvate dioxygenase (HPPD)-inhibiting herbicides mesotrione formulated as Callisto®, sulcotrione formulated as Mikado®, pyrazolynate formulated as Sunbird® 10% GR, and benzobicyclon formulated as Benzobicyclon 3.5% or technical material.
(§5) Treatment requirements for each compound or herbicidal component were calculated based upon the rates being tested, the concentration of active ingredient or acid equivalent in the formulation, an application volume of 2 mL per component per pot, and an application area of 86.59 cm^2 per pot.
(§6) For formulated compounds, a measured amount was placed in an individual 100 or 200 mL glass vial and was dissolved in a volume of 1.25% (v/v) Agri-Dex® crop oil concentrate to obtain application solutions.
(§7) For technical grade compounds, a weighed amount was placed in an individual 100 to 200 mL glass vial and was dissolved in a volume of acetone to obtain concentrated stock solutions. […] The concentrated stock solutions obtained were diluted with an equivalent volume of an aqueous mixture containing 2.5% (v/v) crop oil concentrate so that the final application solutions contained 1.25% (v/v) crop oil concentrate.
(§8) Applications were made by injecting with a pipetter appropriate amounts of the application solutions, individually and sequentially, into the aqueous layer of the paddy. Control plants were treated in the same manner with the solvent blank. Applications were made so that all treated plant material received the same concentrations of acetone and crop oil concentrate.
(§9) The treated plants and control plants were placed in a greenhouse as described above and water was added as needed to maintain a paddy flood. […]

FIMMI = assay: as above; assay type: in vivo, Fimbristylis miliacea (L.) Vahl
Description: as §1, §2, §3, §4, §5, §6, §7, §8, §9

Row | SMILES | Visual Weed Control (%) - 20 DAA ECHOR Obs (ECHOR; 4.38 gae/ha) [%] | Visual Weed Control (%) - 21 DAA ECHOR Obs (ECHOR; 4.38 gae/ha) [%] | Visual Weed Control (%) - 20 DAA ECHOR Obs (ECHOR; 8.75 gae/ha) [%] | Visual Weed Control (%) - 21 DAA ECHOR Obs (ECHOR; 8.75 gae/ha) [%] | Visual Weed Control (%) - 22 DAA ECHOR Obs (ECHOR; 8.75 gae/ha) [%] | Visual Weed Control (%) - 20 DAA ECHOR Obs (ECHOR; 17.5 gae/ha) [%] | Visual Weed Control (%) - 21 DAA ECHOR Obs (ECHOR; 17.5 gae/ha) [%] | Visual Weed Control (%) - 22 DAA ECHOR Obs (ECHOR; 17.5 gae/ha) [%] | Visual Weed Control (%) - 21 DAA ECHOR Obs (ECHOR; 96 gae/ha) [%] | Visual Weed Control (%) - 21 DAA FIMMI Obs (FIMMI; 8 gae/ha) [%] | Visual Weed Control (%) - 21 DAA FIMMI Obs (FIMMI; 16 gae/ha) [%] | Visual Weed Control (%) - 22 DAA ECHOR Obs (ECHOR; 21.2 gae/ha) [%] | Visual Weed Control (%) - 20 DAA ECHOR Obs (ECHOR; 42.4 gae/ha) [%] | Visual Weed Control (%) - 22 DAA ECHOR Obs (ECHOR; 42.4 gae/ha) [%] | Visual Weed Control (%) - 20 DAA ECHOR Obs (ECHOR; 84.8 gae/ha) [%] | Visual Weed Control (%) - 21 DAA FIMMI Obs (FIMMI; 17.5 gae/ha) [%] | Visual Weed Control (%) - 21 DAA FIMMI Obs (FIMMI; 35 gae/ha) [%]
1 | COc1c(Cl)ccc(-c2nc(C(=O)OCc3ccccc3)c(Cl)c(N)c2F)c1F [Compound A Benzyl Ester, benzyl ester of 4-amino-3-chloro-5-fluoro-6-(4-chloro-2-fluoro-3-methoxy-phenyl)pyridine-2-carboxylic acid] | 10 | 25 | 20 | 25 | 40 | 30 | 60 | 95 | 80 | 15 | 65 |  |  |  |  |  | 
2 | COc1c(Cl)ccc(-c2nc(C(=O)O)c(Cl)c(N)c2F)c1F [Compound A Acid, 4-amino-3-chloro-6-(4-chloro-2-fluoro-3-methoxyphenyl)-5-fluoropyridine-2-carboxylic acid] |  |  |  |  |  |  |  |  |  |  |  | 20 | 18 | 40 | 33 | 85 | 85
